The record followed here is patent US9068194B2, “Increasing plant growth by modulating omega-amidase expression in plants” (Los Alamos National Security, LLC, priority 2010, dated 2015).

One data set concerns Ω-amidase in corn roots. Kind of data set: Treatment of sweet corn roots with ω-amidase inhibitor DON (hydroponic). The class given is in vivo. As to the method: (§1) HPLC Assay for 2-oxoglutaramate: HPLC was used to assay 2-oxoglutaramate, following a modification of Calderon et al., 1985, J Bacteriol 161(2): 807-809. Briefly, 2-oxoglutaramate was extracted from plant tissue in distilled de-ionized water acidified to less than pH 2.0 with HCl using a weight to volume ratio of 2:1. 2-Oxoglutaramate was detected and quantified by HPLC, using an ION-300 7.8 mm ID×30 cm L column, with a mobile phase in 0.01NH2SO4, a flow rate of approximately 0.2 ml/min, at 40° C. Injection volume is approximately 20 and retention time between about 38 and 39 minutes. Detection is achieved with 210 nm UV light. Authentic 2-oxoglutaramate was used to calibrate the assay.
(§2) Ω-amidase activity was determined using the 96-well plate assay as described in Krasnikov et al., 2009, Analytical Biochemistry 391: 144-150.
(§3) Columbia nutrient solution was utilized (Knight and Weissman, 1982, Plant Physiol. 70: 1683).
(§4) Plants were grown hydroponically at 24° C. using a 16 hour/day light and 8 hour/day dark photoperiod. Seeds were first germinated and seedlings were grown for 9 days, at which time the individual seedlings were suspended with their roots in the nutrient solution (600 ml of nutrient, pH 6.3) in an 800 ml beaker covered with aluminum foil, with a slit for the seedlings, to prevent algal growth. The beakers were aerated with air provided by a small pump and delivered into the solution through a glass Pasteur pipette. For the treatments, DON was added to the nutrient solution to a final concentration of 1 microgram per ml. Thus DON was supplied continuously to the treated seedlings. The controls were grown in the same nutrient solution without DON. The solutions were refreshed every third day. Plants were sacrificed and analyzed for fresh weight, ω-amidase activity, and 2-oxoglutaramate concentrations in leaf and root tissue 14 days after initiation of treatment.

In another data set the test system is Ω-amidase in bean roots. The data set can be described thus: Treatment of pole bean roots with ω-amidase inhibitor DON (hydroponic). The class given is in vivo. As to the method: as §1, §2, §3, §4
The next data set deals with Ω-amidase in corn leaves. The data set can be described thus: Treatment of corn leaves with ω-amidase inhibitor DON (foliar spray). The class given is in vivo. On the procedure:
as §1, §2, §3
Plants were grown in sand at 24° C. using a 16 hour/day light and 8 hour/day dark photoperiod. Seeds were germinated in the sand and allowed to grow for 9-14 days after seedling emergence. Seedlings (1 per 3 inch pot) were provided nutrients daily. The top of each pot was covered with Saran plastic film, with a slit cut to allow the seedlings room to emerge, in order to prevent treatment solution from reaching the soil. Leaves were treated by spraying DON treatment/nutrient solution twice daily. The DON treatment/nutrient solution contained 1 microgram/ml DON, 50 micoliters/liter SILWET L77 (a surfactant) and 0.02 vol/vol % glycerol (a humectant) at pH 6.3, dissolved in nutrient solution. Control plants were sprayed daily with the same solution without DON. An airbrush was used to apply the solutions until drip. Plants were sacrificed and analyzed for fresh weight, ω-amidase activity, and 2-oxoglutaramate concentrations in leaf and root tissue 14 days after initiation of treatment.

The test system of data set [1] is GPT (glutamine phenylpyruvate transaminase), substrate glutamine. The data set can be described thus: Kinetic analysis of GPT substitution mutants expressed in E. coli. The class given is biochemical, Arabidopsis. The settings on record: enzyme expressed in E. coli. On the procedure: Maximal velocity was determined using the formula: Vmax=Kcat[E]tot. The apparent unimolecular rate constant kcat is also called turnover number and denotes the maximum number of enzymatic reactions catalyzed per second.
This mutant GPT enzyme may be expected to produce more product, the 2-oxoglutaramate, per unit time than the wild type GPT when the concentration of the substrate glutamine is present in millimolar or greater quantities, thus assuring that the […] is saturating.

The mark [2] stands for this setting: root treatment 1 microgram per ml DON, 14 days.
Setting [3] is: bean, root treatment 1 microgram per ml DON, 14 days.
Where [4] appears, read: leaf treatment with DON, average of treated plants.
[5] abbreviates: leaves sprayed twice daily with 1 microgram/ml DON, 14 days (Table 17).

“And” between values parts separate entries of the source, which are not always exact repeats. Equal values may be shown once.

Take `[N-]=[N+]=CC(=O)CC[C@H](N)C(=O)O` [DON, 6-diazo-5-oxo-nor-leucine]: the ω-amidase activity entry in the data set with Ω-amidase in corn roots (continuous DON treatment of roots) is “None of the DON treated plants had detectable levels of ω-amidase activity”; in the data set on Ω-amidase in bean roots (bean, continuous DON treatment of roots), “None of the DON treated plants had detectable levels of ω-amidase activity”. In addition, the growth result in the data set with Ω-amidase in corn roots (continuous DON treatment of roots, versus untreated control plants) is “severely stunted growth”; with Ω-amidase in bean roots (bean, continuous DON treatment of roots, versus untreated control plants), “severely stunted growth”. The entries for the “2-OGM ROOT” value in the data set with Ω-amidase in corn roots (setting [2]), in the data set with Ω-amidase in bean roots (setting [3]) and in the data set on Ω-amidase in corn leaves (setting [5]) were 2288 nmoles/gfwt, 1586 nmoles/gfwt and 126.8 nmoles/gfwt, respectively. Besides, the “LEAF/ROOT RATIO (2-OGM)” value in the data set with Ω-amidase in corn roots (setting [2]) is listed as 0.13; in the data set with Ω-amidase in bean roots (setting [3]) it was 0.18; in the data set with Ω-amidase in corn leaves (setting [5]), 5.0. The “2-OGM LEAF” value in the data set on Ω-amidase in corn roots (root treatment 1 microgram per ml DON, 14 days, 2-OGM = 2-oxoglutaramate) is recorded as 300 nmoles/gfwt; with Ω-amidase in bean roots (setting [3]), 279 nmoles/gfwt; with Ω-amidase in corn leaves (setting [5]) it was 753.9 nmoles/gfwt. Also, the “increase of 2-oxoglutaramate in roots” value was “over 30 fold” in the data set with Ω-amidase in corn roots (root treatment with DON, versus control) and 15 fold with Ω-amidase in bean roots (beans, root treatment with DON, versus control). Further, the “% INCREASE IN FWT” value with Ω-amidase in corn roots (roots in nutrient solution with 1 microgram per ml DON continuously, 14 days after initiation of treatment) came to 174%; in the data set on Ω-amidase in bean roots (bean, roots in nutrient solution with 1 microgram per ml DON continuously, 14 days after initiation of treatment), 198%. For the same molecule, in the data set with Ω-amidase in corn leaves (leaf treatment with DON), the “corn plant fresh weights versus untreated” value is “near doubling”. The “increase of 2-oxoglutaramate in leaves over untreated plants” value in the data set with Ω-amidase in corn leaves (leaf treatment with DON) is reported as “more than 7 fold”. Also, the “leaf ω-amidase activity relative to untreated plants” value in the data set with Ω-amidase in corn leaves (leaf treatment with DON) is on record as “about 50%”. Also, the “Amidase activity Leaf” value in the data set on Ω-amidase in corn leaves (setting [4]) was found to be 0.135 μmole/gfw/hr. Besides, the “Whole Plant Fresh Wt, Average” value in the data set on Ω-amidase in corn leaves (setting [4]) is given as 21.4 g. Moreover, the “2-Oxoglutaramate Concentration” value in the data set with Ω-amidase in corn leaves (leaf treatment with DON, average of treated plants (Table 18)) came out at 838.8 nmoles/gfwt. Besides, the “Whole Plant Fresh Wt” value with Ω-amidase in corn leaves (leaf treatment with DON, individual treated plants) was 20.9 g and 19.2 g and 24.3 g.

B1: GPT/F:V mutant: mutant GPT from the natural Arabidopsis GPT, substituting V (valine) for the F (phenylalanine) residue in NLGQGFP; expressed in E. coli (protein)
chain: MYLDINGVMIKQFSFKASLLPFSSNFRQSSAKIHRPIGATMTTVSTQNESTQKPVQVAKRLEKFKTTIFTQMSILAVKHGAINLGQGVPNFDGPDFVKEAAIQAIKDGKNQYARGYGIPQLNSAIAARFREDTGLVVDPEKEVTVTSGCTEAIAAAMLGLINPGDEVILFAPFYDSYEATLSMAGAKVKGITLRPPDFSIPLEELKAAVTNKTRAILMNTPHNPTGKMFTREELETIASLCIENDVLVFSDEVYDKLAFEMDHISIASLPGMYERTVTMNSLGKTFSLTGWKIGWAIAPPHLTWGVRQAHSYLTFATSTPAQWAAVAALKAPESYFKELKRDYNVKKETLVKGLKEVGFTVFPSSGTYFVVADHTPFGMENDVAFCEYLIEEVGVVAIPTSVFYLNPEEGKNLVRFAFCKDEETLRGAIERMKQKLKRKV
modifications: synthetic Arabidopsis glutamine phenylpyruvate transaminase (GPT) mutant GPT/FV with V substitution in conserved region at position 88
notes: mutant GPT from the natural Arabidopsis GPT, substituting V (valine) for the F (phenylalanine) residue in NLGQGFP; expressed in E. coli
As to B1, in data set [1], the Km was 750 µM and the “increase of Vmax over the wild type” value amounted to 20%. For the same molecule, the Vmax in data set [1] (same amount of protein) is 6.04.
